Results taken from patent US8674109B2, “Pesticidal compositions” (Dow AgroSciences, LLC., priority 2009, dated 2014).

Tests used:
Type in all cases: in vivo
[1] = test system: green peach aphid (Myzus persicae); test: Insecticidal test for green peach aphid in foliar spray assay on cabbage seedlings
Method: Insecticidal Test for Green Peach Aphid (Myzus persicae) in Foliar Spray Assay
Cabbage seedlings grown in 3-inch pots, with 2-3 small (3-5 cm) true leaves, were used as test substrate. The seedlings were infested with 20-50 green peach aphids (wingless adult and nymph) one day prior to chemical application. Four pots with individual seedlings were used for each treatment. Compounds (2 mg) were dissolved in 2 mL of acetone/methanol (1:1) solvent, forming stock solutions of 1000 ppm. The stock solutions were diluted 5× with 0.025% Tween 20 in H2O to obtain the solution at 200 ppm. A hand-held Devilbiss sprayer was used for spraying a solution to both sides of cabbage leaves until runoff. Reference plants (solvent check) were sprayed with the diluent only. Treated plants were held in a holding room for three days at approximately 25° C. and 40% relative humidity (RH) prior to grading. Evaluation was conducted by counting the number of live aphids per plant under a microscope. Insecticidal activity was measured by using Abbott's correction formula are presented in Table 2: Corrected % Control=100*(X−Y)/X
where • X=No. of live aphids on solvent check plants • Y=No. of live aphids on treated plants

[2] = test system: corn earworm (CEW; Helicoverpa zea: Lepidoptera); test: Insecticidal test for corn earworm, 128-well diet tray assay
Method: Insecticidal Test for Corn Earworm (Helicoverpa zea)
(§1) Bioassays on corn earworm (CEW; Helicoverpa zea: Lepidoptera) were conducted using a 128-well diet tray assay. Three to five second instar CEW larvae were placed in each well (3 mL) of the diet tray that had been previously filled with 1 mL of artificial diet to which 50 μg/cm^2 of the test compound (dissolved in 50 μL of 90:10 acetone-water mixture) had been applied (to each of eight wells) and then allowed to dry. Trays were covered with a clear self-adhesive cover, and held at 25° C., 14:10 light-dark for six days. Percent mortality was recorded for the larvae in each well; activity in the eight wells was then averaged.

[3] = test system: beet armyworm (BAW; Spodoptera exigua: Lepidoptera); test: Insecticidal test for beet armyworm, 128-well diet tray assay
Method: Insecticidal Test for Beet Armyworm (Spodoptera exigua)
as §1, with “beet armyworm (BAW; Spodoptera exigua:” for “corn earworm (CEW; Helicoverpa zea:”, “BAW” for “CEW”

SMILES | % Mortality GPA 200 ppm [1] | % Mortality CEW 50 μg/cm^2 [2] | % Mortality BAW 50 μg/cm^2 [3]
CC#CC(OC(=O)Nc1ccc(-c2ncn(-c3ccc(OC(F)(F)F)cc3)n2)cc1)c1ccccc1 (stereo not drawn) [Compound 72] | B (Less than 80) | A (50-100) | A (50-100)
CCC(CC)OC(=O)Nc1ccc(-c2ncn(-c3ccc(OC(F)(F)F)cc3)n2)cc1 [Compound 113] | B (Less than 80) | A (50-100) | A (50-100)
CCOC(=O)CC(C)OC(=O)Nc1ccc(-c2ncn(-c3ccc(OC(F)(F)F)cc3)n2)cc1 (stereo not drawn) [Compound 17] | B (Less than 80) | A (50-100) | B (Less than 50)
CCCC(OC(=O)Nc1ccc(-c2ncn(-c3ccc(OC(F)(F)F)cc3)n2)cc1)c1ccccc1 (stereo not drawn) [Compound 74] | B (Less than 80) | A (50-100) | A (50-100)
CC(OC(=O)Nc1ccc(-c2ncn(-c3ccc(OC(F)(F)F)cc3)n2)cc1)c1cccc(Cl)n1 (stereo not drawn) [Compound 120] | B (Less than 80) | A (50-100) | A (50-100)
CC(OC(=O)Nc1ccc(-c2ncn(-c3ccc(OC(F)(F)F)cc3)n2)cc1)c1cccs1 (stereo not drawn) [Compound 76] | B (Less than 80) | A (50-100) | A (50-100)
CC(OC(=O)Nc1ccc(-c2ncn(-c3ccc(OC(F)(F)F)cc3)n2)cc1)c1ccc(I)cc1 (stereo not drawn) [Compound 35] | B (Less than 80) | A (50-100) | A (50-100)
CC(OC(=O)Nc1ccc(-c2ncn(-c3ccc(OC(F)(F)F)cc3)n2)cc1)c1cnc(C(F)(F)F)nc1 (stereo not drawn) [Compound 57] | B (Less than 80) | A (50-100) | A (50-100)
CCOC(=O)Nc1ccc(-c2ncn(-c3ccc(OC(F)(F)F)cc3)n2)cc1 [Compound 98] | B (Less than 80) | A (50-100) | A (50-100)
CC(C)(OC(=O)Nc1ccc(-c2ncn(-c3ccc(OC(F)(F)F)cc3)n2)cc1)c1ccccc1 [Compound 21] | B (Less than 80) | A (50-100) | A (50-100)
CC(C)(CCl)OC(=O)Nc1ccc(-c2ncn(-c3ccc(OC(F)(F)C(F)(F)F)cc3)n2)cc1 [Compound 32] | B (Less than 80) | A (50-100) | A (50-100)
O=C(Nc1ccc(-c2ncn(-c3ccc(OC(F)(F)F)cc3)n2)cc1)Oc1ccccc1C(F)(F)F [Compound 124] | B (Less than 80) | A (50-100) | A (50-100)
C#CC(OC(=O)Nc1ccc(-c2ncn(-c3ccc(C(F)(F)F)cc3)n2)cc1)c1ccccc1 (stereo not drawn) [Compound 31] | B (Less than 80) | A (50-100) | A (50-100)
O=C(Nc1ccc(-c2ncn(-c3ccc(OC(F)(F)F)cc3)n2)cc1)OCc1ccc(C(F)(F)F)cc1 [Compound 50] | B (Less than 80) | B (Less than 50) | B (Less than 50)
CN(C(=O)Oc1ccc([N+](=O)[O-])cc1)c1ccc(-c2ncn(-c3ccc(OC(F)(F)F)cc3)n2)cc1 [Compound 136, methyl-{4-[1-(4-trifluoromethoxyphenyl)-1H-[1,2,4]triazol-3-yl]-phenyl}-carbamic acid 4-nitrophenyl ester] | B (Less than 80) | B (Less than 50) | B (Less than 50)
CCC(OC(=O)Nc1ccc(-c2ncn(-c3ccc(OC(F)(F)C(F)(F)F)cc3)n2)cc1)c1ccccc1 (stereo not drawn) [Compound 34] | B (Less than 80) | A (50-100) | A (50-100)
CCC(OC(=O)Nc1ccc(-c2ncn(-c3ccc(OC(F)(F)F)cc3)n2)cc1)c1cccc(Cl)c1 (stereo not drawn) [Compound 65] | B (Less than 80) | A (50-100) | A (50-100)

SMILES | % Mortality GPA 200 ppm [1] | % Mortality CEW 50 μg/cm^2 [2] | % Mortality BAW 50 μg/cm^2 [3]
O=C(Nc1ccc(-c2ncn(-c3ccc(OC(F)(F)F)cc3)n2)cc1)OCc1ccccc1 [Compound 105] | B (Less than 80) | A (50-100) | A (50-100)
CC(OC(=O)Nc1ccc(-c2ncn(-c3ccc(OC(F)(F)F)cc3)n2)cc1)c1ccc(S(C)(=O)=O)cc1 (stereo not drawn) [Compound 75] | B (Less than 80) | A (50-100) | A (50-100)
O=C(Nc1ccc(-c2ncn(-c3ccc(OC(F)(F)F)cc3)n2)cc1)OC1CCc2ccccc21 (stereo not drawn) [Compound 109] | B (Less than 80) | A (50-100) | B (Less than 50)
COCC(OC(=O)Nc1ccc(-c2ncn(-c3ccc(OC(F)(F)F)cc3)n2)cc1)c1ccccc1 (stereo not drawn) [Compound 58] | B (Less than 80) | A (50-100) | A (50-100)
CC(OC(=O)Nc1ccc(-c2ncn(-c3ccc(OC(F)(F)F)cc3)n2)cc1)C1CCCCC1 (stereo not drawn) [Compound 16] | B (Less than 80) | B (Less than 50) | B (Less than 50)
Fc1ccc(OC(=S)Nc2ccc(-c3ncn(-c4ccc(OC(F)(F)F)cc4)n3)cc2)cc1 [Compound 134, O-4-fluorophenyl 4-(1-(4-(trifluoromethoxy)phenyl)-1H-1,2,4-triazol-3-yl)phenylcarbamothioate] | B (Less than 80) | B (Less than 50) | B (Less than 50)
COC(=S)Nc1ccc(-c2ncn(-c3ccc(OC(F)(F)F)cc3)n2)cc1 [Compound 132, O-methyl 4-(1-(4-(trifluoromethoxy)phenyl)-1H-1,2,4-triazol-3-yl)phenylcarbamothioate] | B (Less than 80) | B (Less than 50) | A (50-100)
COc1ccc(C(C)OC(=O)Nc2ccc(-c3ncn(-c4ccc(OC(F)(F)F)cc4)n3)cc2)nc1 (stereo not drawn) [Compound 119] | B (Less than 80) | A (50-100) | A (50-100)
CN(C(=O)OC(C)(C)C)c1ccc(-c2ncn(-c3ccc(OC(F)(F)F)cc3)n2)cc1 [Compound 131, tert-butyl methyl(4-(1-(4-(trifluoromethoxy)phenyl)-1H-1,2,4-triazol-3-yl)phenyl)carbamate] | B (Less than 80) | – | –
O=C(Nc1ccc(-c2ncn(-c3ccc(OC(F)(F)F)cc3)n2)cc1)Oc1ccc(C(F)(F)F)cc1 [Compound 126] | B (Less than 80) | – | –
C[C@H](OC(=O)Nc1ccc(-c2ncn(-c3ccc(OC(F)(F)F)cc3)n2)cc1)c1ccccc1 [Compound 60] | – | A (50-100) | A (50-100)
C[C@@H](OC(=O)Nc1ccc(-c2ncn(-c3ccc(OC(F)(F)F)cc3)n2)cc1)c1ccccc1 [Compound 61] | – | A (50-100) | A (50-100)
CCCCC(OC(=O)Nc1ccc(-c2ncn(-c3ccc(OC(F)(F)F)cc3)n2)cc1)C(=O)OCC (stereo not drawn) [Compound 26, 2-{4-[1-(4-trifluoromethoxyphenyl)-1H-[1,2,4]triazol-3-yl]-phenylcarbamoyloxy}-hexanoic acid ethyl ester] | – | A (50-100) | A (50-100)
O=C(Nc1ccc(-c2ncn(-c3ccc(OC(F)(F)F)cc3)n2)cc1)Oc1cccc(C(F)(F)F)c1 [Compound 125] | B (Less than 80) | – | –
CC(C)(C#N)OC(=O)Nc1ccc(-c2ncn(-c3ccc(OC(F)(F)F)cc3)n2)cc1 [Compound 14, {4-[1-(4-trifluoromethoxyphenyl)-1H-[1,2,4]triazol-3-yl]-phenyl}-carbamic acid cyano-dimethyl-methyl ester] | – | B (Less than 50) | B (Less than 50)
O=C(Nc1ccc(-c2ncn(-c3ccc(OC(F)(F)F)cc3)n2)cc1)Oc1ccc(F)cc1 [Compound 127] | B (Less than 80) | – | –
